For 22 compounds, AC50 and EC50 results are on record in patent US20240316038A1, “APOL1 INHIBITORS AND METHODS OF USE” (Maze Therapeutics, Inc., priority 2021, published 2024).

Structures are written as SMILES. Where only a bound is given, the exact number is not on record here.

Assay [1] has as its target T1, APOL1 G2 (Homo sapiens, UniProt O14791, DEL388-389).
T1 construct: expressed in transfected cells; host or cells: HEK293 T-REx clonal lines: HEK T-REx/GCaMP6f/APOL1 G2 K6.3 in A1, HEK293/T-REx APOL1 G2/clone #2 in A2
T1 sequence (O14791 with tags, fused parts or gaps DEL388-389): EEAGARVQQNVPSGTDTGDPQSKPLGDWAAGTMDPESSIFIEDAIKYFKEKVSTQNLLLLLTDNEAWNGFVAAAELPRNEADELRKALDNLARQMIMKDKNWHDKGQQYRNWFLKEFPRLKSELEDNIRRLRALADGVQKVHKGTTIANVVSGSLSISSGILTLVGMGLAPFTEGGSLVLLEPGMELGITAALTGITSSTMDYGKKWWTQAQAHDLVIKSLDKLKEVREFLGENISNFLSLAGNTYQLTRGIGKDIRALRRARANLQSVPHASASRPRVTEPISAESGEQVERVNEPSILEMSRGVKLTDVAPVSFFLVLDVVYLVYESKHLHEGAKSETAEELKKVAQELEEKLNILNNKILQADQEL
As to the kind of experiment: APOL1 calcium transport inhibition assay (GCaMP6f calcium influx, FLIPR) in HEK T-REx/GCaMP6f/APOL1 G2 K6.3 cells. Format: cell-based. The conditions noted are these: inhibition of APOL1-mediated calcium influx; geometric mean of at least 2 assay runs, † = single assay run (technical duplicate). A digest of the protocol:
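HEK293 cells stably expressing GCaMP6f, APOL1 G2 induced 6 h with doxycycline (20 ng/mL added), then washed into Ca2+-free Tyrode's buffer pH 7.4. Compounds (8-point dose response) preincubated 10 min at room temperature, then Ca2+ injected to 5 mM final and influx read on FLIPR. AC50 reported as geometric mean of runs.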

Assay [2] deals with T1, APOL1 G2. Description: Rescue of HEK293 cell death caused by overexpression of APOL1 (CellTiter-Glo luminescence), HEK293/T-REx APOL1 G2/clone #2. Type of assay: cell-based. Conditions: reversal of cell death caused by overexpression of APOL1; geometric mean of at least 2 assay runs, † = single assay run (technical duplicate). In a few lines:
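HEK293/T-REx APOL1 G2 clone #2 cells, 5,000/well, induced with 6 ng/mL doxycycline and exposed to compound (8-point, 3-fold dilutions, 0.5% DMSO) for 17 h at 37 °C. Viability by CellTiter-Glo luminescence; EC50 for reversal of APOL1-induced death from a four-parameter logistic fit, geometric mean of ≥2 runs.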

In the case of `CN=S(C)(=O)c1ccc(OC[C@@H]2CN(CCc3cccc(C#N)c3)C[C@H]2C)cc1` (single isomer, unassigned) [Compound 170, 3-{2-[(3S,4S)-3-methyl-4-({4-[(R or S)-methyl(methylimi-no)oxo-λ^6-sulfanyl]phenoxy}methyl)pyrrolidin-1-yl]ethyl}benzonitrile], at APOL1 G2 [1], the AC50 was found to be 37.5 nM. The EC50 on APOL1 G2 [2] worked out at 76 nM.
`CN=S(C)(=O)c1ccc(OC[C@@H]2CN(CCc3cccc(C#N)c3)C[C@H]2C)cc1` (single isomer, unassigned) [Compound 171, 3-{2-[(3S,4S)-3-methyl-4-({4-[(S or R)-methyl(methylimi-no)oxo-λ^6-sulfanyl]phenoxy}methyl)pyrrolidin-1-yl]ethyl}benzonitrile]: the half-maximal activity concentration (AC50) at APOL1 G2 [1] amounted to 212 nM. Besides, the EC50 on APOL1 G2 [2] came out at 146 nM.
The matching figures for `C[C@H]1CN(CCc2cccc(Cl)c2)C[C@@H]1COc1ccc(S(=O)(=O)CCCS(C)(=O)=O)cc1` (single isomer, unassigned) [Compound 176, (3R,4R or 3S,4S)-1-[2-(3-chlorophenyl)eth-yl]-3-{[4-(3-methanesulfonylpro-panesulfonyl)phe-noxy]methyl}-4-methylpyrrolidine]: 63 nM and less than 47.2 nM.
On the same counts, the results for `C[C@@H]1CN(CCc2cccc(Cl)c2)C[C@H]1COc1ccc(S(=O)(=O)CCCS(C)(=O)=O)cc1` (single isomer, unassigned) [Compound 177, (3S,4S or 3R,4R)-1-[2-(3-chlorophenyl)eth-yl]-3-{[4-(3-methanesulfonylpro-panesulfonyl)phe-noxy]methyl}-4-methylpyrrolidine] are 2860 nM and 1830 nM.
On to `CN=S(C)(=O)c1ccc(OC[C@@H]2CN(CCc3cc(Cl)cc(C#N)c3)CCN2)cc1` (single isomer, unassigned) [Compound 187, 3-chloro-5-{2-[(3S)-3-({4-[(S or R)-methyl(methyl-imino)oxo-λ^6-sulfanyl]pheno-xy}methyl)pipera-zin-1-yl]ethyl}benzo-nitrile], for which the half-maximal activity concentration (AC50) on APOL1 G2 [1] worked out at 198 nM. The EC50 on APOL1 G2 [2] amounted to 436 nM.
On the same counts, the results for `CN=S(C)(=O)c1ccc(OC[C@@H]2CN(CCc3cc(Cl)cc(C#N)c3)CCN2)cc1` (single isomer, unassigned) [Compound 188, 3-chloro-5-{2-[(3S)-3-({4-[(R or S)-methyl(methyl-imino)oxo-λ^6-sulfanyl]pheno-xy}methyl)piper-azin-1-yl]ethyl}benzo-nitrile] are 511 nM and 303 nM.
The matching figures for `CC1CC(COc2ccc(S(C)(=O)=O)cc2)CN1CCc1cc(Cl)cc(C#N)c1` (single isomer, unassigned) [Compound 199, rac-cis or trans-3-chloro-5-{2-[4-[(4-methanesulfonylphenoxy)methyl]-2-methylpyrrolidin-1-yl]ethyl}benzonitrile]: 817 nM and 2440 nM.
Turning to `CC1CC(COc2ccc(S(C)(=O)=O)cc2)CN1CCc1cc(Cl)cc(C#N)c1` (single isomer, unassigned) [Compound 200, 3-chloro-5-(2-((2S,4R or 2R,4S or 2R,4R or 2S,4S)-2-methyl-4-((4-(methylsulfonyl)phenoxy)methyl)pyrrolidin-1-yl)ethyl)benzonitrile], on APOL1 G2 [1], the AC50 worked out at 836 nM. The EC50 at APOL1 G2 [2] was found to be 1990 nM.
On the same counts, the results for `CC1CC(COc2ccc(S(C)(=O)=O)cc2)CN1CCc1cc(Cl)cc(C#N)c1` (single isomer, unassigned) [Compound 201, 3-chloro-5-(2-((2R,4S or 2S,4R or 2R,4R or 2S,4S)-2-methyl-4-((4-(methylsulfonyl)phenoxy)methyl)pyrrolidin-1-yl)ethyl)benzonitrile] are 620 nM and 1680 nM.
The matching figures for `CC1CC(COc2ccc(S(C)(=O)=O)cc2)CN1CCc1cc(Cl)cc(C#N)c1` (single isomer, unassigned) [Compound 202, rac-trans or cis-3-chloro-5-{2-[4-[(4-methanesulfonylphenoxy)methyl]-2-methylpyrrolidin-1-yl]ethyl}benzonitrile]: 860 nM and 89 nM.
The matching figures for `CC1CC(COc2ccc(S(C)(=O)=O)cc2)CN1CCc1cc(Cl)cc(C#N)c1` (single isomer, unassigned) [Compound 203, 3-chloro-5-(2-((2R,4S or 2S,4R or 2R,4R or 2S,4S)-2-methyl-4-((4-(methylsulfonyl)phenoxy)methyl)pyrrolidin-1-yl)ethyl)benzonitrile]: 9300 nM and 3540 nM.
In the case of `CC1CC(COc2ccc(S(C)(=O)=O)cc2)CN1CCc1cc(Cl)cc(C#N)c1` (single isomer, unassigned) [Compound 204, 3-chloro-5-(2-((2R,4S or 2S,4R or 2S,4S or 2R.4R)-2-methyl-4-((4-(methylsulfonyl)phenoxy)methyl)pyrrolidin-1-yl)ethyl)benzonitrile], at APOL1 G2 [1], the half-maximal activity concentration (AC50) is 456 nM. For the same compound, the 50% effective concentration (EC50) at APOL1 G2 [2] was 42.3 nM.
The matching figures for `C[C@]1(O)CN(CCc2cccc(Cl)c2)C[C@@H]1COc1ccc(S(C)(=O)=O)cc1` (single isomer, unassigned) [Compound 206, (3R,4R or 3S,4S)-1-[2-(3-chlorophenyl)ethyl]-4-[(4-methanesulfonylphenoxy)methyl]-3-methylpyrrolidin-3-ol]: more than 25000 nM and more than 30000 nM.
On the same counts, the results for `C[C@@]1(O)CN(CCc2cccc(Cl)c2)C[C@H]1COc1ccc(S(C)(=O)=O)cc1` (single isomer, unassigned) [Compound 207, (3S,4S or 3R,4R)-1-[2-(3-chlorophenyl)ethyl]-4-[(4-methanesulfonylphenoxy)methyl]-3-methylpyrrolidin-3-ol] are 340 nM and 933 nM.
The matching figures for `C[C@@]1(O)CN(CCc2cccc(Cl)c2)C[C@@H]1COc1ccc(S(C)(=O)=O)cc1` (single isomer, unassigned) [Compound 209, (3R,4S or 3S,4R)-1-[2-(3-chlorophenyl)ethyl]-4-[(4-methanesulfonylphenoxy)methyl]-3-methylpyrrolidin-3-ol pyrrolidine-3-ol]: 3740 nM and more than 19500 nM.
Take `C[C@]1(O)CN(CCc2cccc(Cl)c2)C[C@H]1COc1ccc(S(C)(=O)=O)cc1` (single isomer, unassigned) [Compound 210, (3S,4R or 3R,4S)-1-[2-(3-chlorophenyl)ethyl]-4-[(4-methanesulfonylphenoxy)methyl]-3-methylpyrrolidin-3-ol]: the AC50 at APOL1 G2 [1] was found to be 898 nM. The EC50 on APOL1 G2 [2] was determined as 3120 nM.
The matching figures for `CC1CNC(COc2ccc(S(C)(=O)=O)cc2)CN1CCc1cccc(Cl)c1` (single isomer, unassigned) [Compound 212, rac-cis or trans-(2R,5S)-1-[2-(3-chlorophenyl)ethyl]-5-[(4-methanesulfonylphenoxy)methyl]-2-methylpiperazine]: 2550 nM and more than 14300 nM.
Consider `CC1CNC(COc2ccc(S(C)(=O)=O)cc2)CN1CCc1cccc(Cl)c1` (single isomer, unassigned) [Compound 213, rac-trans or cis-(2R,5S)-1-[2-(3-chlorophenyl)ethyl]-5-[(4-methanesulfonylphenoxy)methyl]-2-methylpiperazine], for which, at APOL1 G2 [1], the AC50 was 877 nM. Besides, on APOL1 G2 [2], the EC50 is 964 nM.
The matching figures for `C[C@@H]1C[C@H](COc2ccc(S(C)(=O)=O)cc2)CN1CC(O)c1cccc(Cl)c1` (single isomer, unassigned) [Compound 214, (1R) or (1S)-1-(3-chlorophenyl)-2-[(2R,4S)-4-[(4-methanesulfonylphenoxy)methyl]-2-methylpyrrolidin-1-yl]ethan-1-ol]: 428 nM and 679 nM.
On the same counts, the results for `C[C@@H]1C[C@H](COc2ccc(S(C)(=O)=O)cc2)CN1CC(O)c1cccc(Cl)c1` (single isomer, unassigned) [Compound 215, (1S) or (1R)-1-(3-chlorophenyl)-2-[(2R,4S)-4-[(4-methanesulfonylphenoxy)methyl]-2-methylpyrrolidin-1-yl]ethan-1-ol] are 229 nM and 42.2 nM.
The matching figures for `CS(=O)(=O)c1ccc(OCC2CCCCN(CCc3cccc(Cl)c3)C2)cc1` (centres unmarked) [Compound 1, 1-(3-chlorophenethyl)-3-((4-(methylsulfonyl)phenoxy)methyl)azepane]: not above 253 nM and 528 nM.
With `CS(=O)(=O)c1ccc(OCC2(O)CCCN(CCc3cccc(Cl)c3)C2)cc1` (centres unmarked) [Compound 4, 1-(3-chlorophenethyl)-3-((4-(methylsulfonyl)phenoxy)methyl) piperidin-3-ol], the AC50 on APOL1 G2 [1] is 1070 nM. The EC50 at APOL1 G2 [2] came out at 2350 nM.
